Reference: PubChem BioAssay (NCI)
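All cell lines were grown in 96-well plates and treated with compound for 48 hours. GI50: concentration for 50% inhibition of growth. TGI: concentration producing complete growth inhibition.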

Tests used:
Experiment in all cases: NCI-60 cell line screen, 48 h
HL-60(TB) leukemia = test system: HL-60(TB) leukemia
ACHN renal = test system: ACHN renal
786-0 renal = test system: 786-0 renal
KM12 colon = test system: KM12 colon
RXF 393 renal = test system: RXF 393 renal
COLO 205 colon = test system: COLO 205 colon
IGROV1 ovarian = test system: IGROV1 ovarian
CCRF-CEM leukemia = test system: CCRF-CEM leukemia
SK-OV-3 ovarian = test system: SK-OV-3 ovarian
HOP-62 NSCLC = test system: HOP-62 NSCLC

Row | SMILES | TGI (HL-60(TB) leukemia) | TGI (ACHN renal) | TGI (786-0 renal) | TGI (KM12 colon) | TGI (RXF 393 renal) | TGI (COLO 205 colon) | TGI (IGROV1 ovarian) | TGI (CCRF-CEM leukemia) | TGI (SK-OV-3 ovarian) | TGI (HOP-62 NSCLC) | GI50 (HL-60(TB) leukemia) | GI50 (ACHN renal) | GI50 (786-0 renal) | GI50 (KM12 colon) | GI50 (RXF 393 renal) | GI50 (COLO 205 colon) | GI50 (IGROV1 ovarian) | GI50 (CCRF-CEM leukemia) | GI50 (SK-OV-3 ovarian) | GI50 (HOP-62 NSCLC)
1 | CC(C)(C)C1=NO[C@H]2[C@@H](NC(=O)c3ccccc3)CC[C@@H]12 | > 100 µM | > 100 µM | > 100 µM | > 100 µM | > 100 µM | > 100 µM | > 100 µM | > 100 µM | > 100 µM | > 100 µM | – | – | – | – | – | – | – | – | – | –
2 | Cc1ccc2ccc3c4ccccc4ccc3c2c1 | 60.5 µM | > 100 µM | 69.8 µM | 68.5 µM | 46.8 µM | 32.6 µM | 94.8 µM | 52.4 µM | > 100 µM | > 100 µM | 23.8 µM | 31.9 µM | 24.4 µM | 21.6 µM | 20.1 µM | 18 µM | 20 µM | 22 µM | 39.5 µM | 38 µM
3 | N=C(N)n1cc(/C=N/N=C(N)N)cn1 | > 100 µM | > 100 µM | > 100 µM | > 100 µM | > 100 µM | > 100 µM | > 100 µM | > 100 µM | > 100 µM | > 100 µM | – | – | – | – | – | – | – | – | – | –
4 | COCOC1CCCC[C@@]1(OCCOCCO[C@@]1(c2ccccc2)CCCC[C@H]1OCOC)c1ccccc1 (stereo not given in full) | > 100 µM | > 100 µM | > 100 µM | > 100 µM | > 100 µM | > 100 µM | > 100 µM | > 100 µM | > 100 µM | > 100 µM | – | – | – | – | – | – | – | – | – | –
5 | N#Cc1ccccc1Sc1ccccc1N | > 100 µM | > 100 µM | > 100 µM | > 100 µM | > 100 µM | > 100 µM | > 100 µM | > 100 µM | > 100 µM | > 100 µM | – | – | – | – | – | – | – | – | – | –
6 | CCCC(O)[C@@]1(CC)CC(C)C(O)(C2(C)C[C@H](C)[C@@H](C(CC)C(=O)C(C)[C@@H](O)[C@H](C)C3OC(O)(C(CC)C(=O)O)[C@@H](C)C(O)C3CC)O2)O1 (stereo not given in full) | 0.233 µM | 6.78 µM | 5.07 µM | 2.06 µM | 1.61 µM | 0.83 µM | 9.81 µM | 7.36 µM | 6.54 µM | 2.3 µM | – | – | – | – | – | – | – | – | – | –
7 | Cn1cc(-c2ccc3ncc(-c4ccc(CC(=O)Nc5cc(C(C)(C)C)nn5C)cc4)cc3c2)cn1 | 8.28 µM | > 20 µM | > 20 µM | 3 µM | > 20 µM | > 20 µM | > 20 µM | 16.6 µM | > 20 µM | > 20 µM | 1.2 µM | 0.689 µM | 1.28 µM | 0.151 µM | 1.14 µM | 2.78 µM | 0.568 µM | 0.81 µM | 0.934 µM | 3.96 µM
8 | C#COc1cccc(Nc2ncnc3cc(NC(=O)[C@@H](C)Cl)ccc23)c1 | 8.25 µM | > 62.5 µM | > 62.5 µM | > 62.5 µM | 40.8 µM | > 62.5 µM | > 62.5 µM | > 62.5 µM | > 62.5 µM | > 62.5 µM | 2.02 µM | 18.9 µM | 19.3 µM | 3.25 µM | 8.12 µM | 5.3 µM | 5.29 µM | 7.45 µM | 19.6 µM | 8.18 µM
